According to paper PMC12752627, “Discovery of a Potent and Selective TEAD Degrader with Durable Degradation Activity” (Advanced Science, 2025):

Experiments:
[1] = test system: ES2 xenograft; experiment: ES2 xenograft efficacy study; type: in vivo, BALB/c nude mice; conditions: 10 and 30 mg/kg
Method: Animal experiments were conducted by Medsyin (Shanghai) Co., Ltd. The experimental protocol was approved by the IACUC of the company (No.: PZWH‐2025031003) and strictly adhered to the guidelines of the AAALAC. The specific procedures are as follows: 5 × 10^6 MSTO‐211H cells or ES2 cells were suspended in 100 µL of a mixture of PBS and Matrigel and inoculated subcutaneously into the right axilla of 6‐week‐old BALB/c nude mice. Drug administration was initiated on day 7 after cell inoculation (when the average tumor volume was ≈150 mm^3). The experiment was divided into four groups with 6 mice in each group. The specific grouping and administration methods are as follows: control group, KY‐001 group (10 mg kg^−1, p.o.), KG‐FP‐003 (10 mg kg^−1 or 30 mg kg^−1, i.p.). The administration routes included intraperitoneal injection and intragastric administration, once a day for 21 consecutive days. During the experiment, the body weight and tumor volume of the mice were measured twice a week. At the end of the experiment, the mice were sacrificed and tumor tissues were collected.

[2] = test system: NCI-H226 cells; experiment: DIA proteomics in NCI-H226 cells; type: cell-based, Homo sapiens; conditions: 100 nM, 24 h
Method: Cells were seeded in 6‐well plates at 1 × 10⁶ cells well^−1 and treated with 100 nM KG‐FP‐003 (n = 3). After 24 h incubation, cells were harvested, washed with ice‐cold PBS, and stored at −80 °C. Cell pellets were lysed in 4 volumes of lysis buffer (1% SDS, 1% protease inhibitor cocktail) followed by 3 min sonication on ice. After centrifugation (12 000 g, 10 min, 4 °C), supernatants were collected for BCA protein quantification. Proteins were reduced with 5 mM DTT (56 °C, 30 min), alkylated with 11 mM iodoacetamide (RT, dark, 15 min), and diluted with 200 mM TEAB to reduce urea concentration below 2 M. Trypsin digestion (1:50 enzyme‐to‐protein ratio) was performed at 37 °C overnight followed by additional 4 h digestion. Peptides were desalted using Strata‐X SPE columns. […] MS analysis was performed on a timsTOF Pro mass spectrometer in dia‐PASEF mode (ESI voltage: 1.75 kV; scan range: 300–1500 m z^−1). DIA data were processed using DIA‐NN (v1.8) against the Homo_sapiens_9606_SP_20 231 220.fasta database (20429 entries) with reversed decoys, using trypsin as the cleavage enzyme. Fixed modifications included N‐terminal methionine excision and carbamidomethylation of cysteine, with FDR set at <1%.

[3] = test system: BMF, CTGF expression; experiment: RT-qPCR in MSTO-211H cells; type: cell-based
Method: Cells were seeded in 6‐well plates at a density of 1 million cells per well. The following day, different concentrations of compounds were added, and cells were collected after 24 h. For wash‐out experiments, cells were pre‐treated with compounds at indicated concentrations for 6 h, then cells were washed three times with PBS, and an equal volume of complete medium without compounds was added and incubated for another 18 h.
RNA was isolated and purified from the samples using the EZ‐10 Rotary Column Total RNA Isolation Kit (Sangon Biotech, B615012). After measuring the RNA concentration, 200 ng of purified RNA was used for genomic DNA removal and reverse transcription to cDNA with the HiScript III 1st Strand cDNA Synthesis Kit (+DNA wiper) (Vazyme, R312‐02). The resulting cDNA was then prepared into a reaction mix according to the ChamQ SYBR qPCR Mix (Vazyme, #q711‐02). Real‐time PCR analysis was performed using a QuantStudio 6 Pro real‐time PCR system (Thermo Fisher Scientific). Relative gene expression was calculated using the 2‐∆∆CT method. The primers used in this study were provided in the Supporting Information (Table S1, Supporting Information)

[4] = molecular target: TEAD1 (Homo sapiens, UniProt P28347); experiment: Immunoblot in wild-type / CRBN-knockout HEK293T cells and rescue experiment; type: cell-based; design: endogenous in cells; host or cells: HEK293T wild-type and CRBN-knockout; conditions: 6 h treatment
Method: (§1) Immunoblotting was carried out as previously described.^[ [29] ^] Cells were seeded in 6‐well plates (Yeasen, #84011ES50) at a density of 1 million cells per well. The following day, cells were treated with compounds at the required concentrations, with the DMSO concentration kept below 0.4‰ to prevent toxic effects on the cells. The collected cell pellets were washed three times with PBS (Meilunbio, #MA0015) and resuspended in 120 µL of RIPA lysis buffer (Meilunbio, #MA0151) containing 1% protease inhibitor (Meilunbio, #MB2678‐2). The cells were then sonicated on ice and centrifuged at 12 000 rpm for 15 min at 4 °C to remove cellular debris. Protein concentrations were determined using the BCA Protein Quantification Kit (Meilunbio, #MA0082‐1). The protein samples were normalized, boiled at 99 °C for 10 min, and then subjected to electrophoresis on a 10% SDS‐PAGE gel. The separated protein bands were transferred to nitrocellulose membranes, blocked with TBST containing 5% BSA, and incubated with the indicated primary antibodies. Finally, the blots were imaged using an Amersham Typhoon NIR imager.

[5] = test system: TEAD1/3, TAZ; experiment: Immunoblot in A172 cells; type: cell-based; conditions: 24 h
Method: as §1

[6] = molecular target: T1, TEAD2 (Homo sapiens, UniProt Q15562); experiment: HiBiT degradation assay, HEK293T HiBiT-TEAD2; type: cell-based; conditions: 6 h
T1 construct: endogenous in cells; host or cells: HEK293T HiBiT knock-in
Method: HiBiT cells were inoculated into 96‐well flat‐bottomed tissue culture plates at a density of 50 000 cells per well, followed by adding degraders into the wells using the I‐DOT dispenser. After 6 h of incubation, the cells were lysed and assayed for degradation using the Nano‐Glo HiBiT Lysis Assay System (Promega, #N3030). Luminescence signals were read using an Envision plate reader (Revvity) and the data were analyzed using GraphPad Prism 9.5 software.
The ribonucleoprotein (RNP) complex was prepared by mixing 2 µg of NLS‐Cas9‐EGFP nuclease (Novoprotein, #E379‐01A), 50 pmol of sgRNA, 10 µL of electrotransfer solution, and 50 pmol of designed donor DNA, then incubated for 10 min at room temperature. One million HEK293T cells were resuspended in 10 µL of electrotransfection solution and mixed with 10 µL of the RNP complex. Electroporation was performed using a Celetrix SP100 electroporator at 480 V. After electroporation, the cells were transferred to antibiotic‐free DMEM complete medium for overnight culture. The following day, EGFP‐positive cells were sorted using a Sony MA 900 cell sorter, plated in a 96‐well cell culture plate (Servicebio, #CCP‐96H), and cultured for 4 weeks. After this period, positive clones were screened using the Nano‐Glo HiBiT Lytic Detection system (Promega, #N3030).

T1 sequence (Q15562 whole entry): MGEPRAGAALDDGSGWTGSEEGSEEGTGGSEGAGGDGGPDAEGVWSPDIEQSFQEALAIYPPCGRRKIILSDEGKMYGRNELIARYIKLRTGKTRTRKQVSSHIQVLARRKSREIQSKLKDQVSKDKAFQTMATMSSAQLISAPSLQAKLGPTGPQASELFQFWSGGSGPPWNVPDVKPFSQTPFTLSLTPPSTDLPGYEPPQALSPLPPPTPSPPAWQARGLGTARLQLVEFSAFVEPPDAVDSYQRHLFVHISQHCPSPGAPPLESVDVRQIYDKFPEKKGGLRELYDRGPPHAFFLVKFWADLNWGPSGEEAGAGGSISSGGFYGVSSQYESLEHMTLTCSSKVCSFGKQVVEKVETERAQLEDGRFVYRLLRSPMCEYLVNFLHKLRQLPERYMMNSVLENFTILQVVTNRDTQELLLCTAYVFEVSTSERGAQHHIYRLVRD
Chain of TEAD1 (P28347 whole entry): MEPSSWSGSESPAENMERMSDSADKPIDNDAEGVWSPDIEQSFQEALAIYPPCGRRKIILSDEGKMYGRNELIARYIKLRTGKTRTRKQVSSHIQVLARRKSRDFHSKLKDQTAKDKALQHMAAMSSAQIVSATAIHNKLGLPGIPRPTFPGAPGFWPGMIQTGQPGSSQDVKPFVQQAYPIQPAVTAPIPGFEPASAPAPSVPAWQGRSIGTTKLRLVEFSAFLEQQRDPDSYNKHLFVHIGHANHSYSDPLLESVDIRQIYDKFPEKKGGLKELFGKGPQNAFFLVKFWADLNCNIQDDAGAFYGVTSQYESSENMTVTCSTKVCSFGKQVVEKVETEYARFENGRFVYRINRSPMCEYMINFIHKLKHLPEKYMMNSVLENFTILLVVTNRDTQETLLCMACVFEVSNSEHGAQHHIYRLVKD

`CNC(=O)c1cc2c(c(F)c1-c1c(Cl)c(F)cc3c1C[C@@](CN[C@H]1CC[C@H](C(=O)N4CCC(CC5CCN(C(=O)COc6ccc(N7CCC(=O)NC7=O)c(C)c6)CC5)CC4)CC1)(c1ccccc1)O3)[C@@H](O)[C@@H](C)C2` [KG-FP-003] was tested. Which “Tumor response in ES2 xenograft” value [1] did it give?
The value was “significant tumor regression”.

What about the Proteome-wide selectivity [2] of the same compound?
Its Proteome-wide selectivity is “selective downregulation of TEAD1 and TEAD4”.

What about the “Expression of TEAD target gene CTGF (qPCR)” value [3] of the same compound?
The value was “downregulation”.

And the “Expression of pro-apoptotic gene BMF (qPCR)” value [3]?
Its value is “dramatic upregulation”.

What about the “TEAD degradation in CRBN-null HEK293T cells” value [4] of the same compound?
The value was “minimal”.

What about the “Degradation of TEAD1 and TEAD3 by immunoblot” value [5] of the same compound?
The value was “complete degradation”.

What about the “TAZ protein expression by immunoblot” value [5] of the same compound?
Its value is “increased TAZ protein expression”.

What about the DC50 [6] of the same compound?
The DC50 was 0.068 ± 0.015 µM.

What about the “TEAD2 Dmax” value [6] of the same compound?
Its value is “over 80%”.

What about the Dmax ([6]; HEK-293T) of the same compound?
The Dmax was 84 ± 5%.
